Inhibition data for 20 molecules are collected here from ChEMBL document CHEMBL2177051.

Holding throughout (settings): Homo sapiens
For assay [1], the system named is HEK293. Briefly: Inhibition of proteasome beta5 in HEK cell lysates at 1 to 100 uM after 1 hr by MV151 competitive SDS-PAGE analysis.
For assay [2], the system named is HEK293. Briefly: Inhibition of proteasome beta2 in HEK cell lysates at 1 to 100 uM after 1 hr by MV151 competitive SDS-PAGE analysis.
In assay [3] the test system is HEK293. Briefly: Inhibition of proteasome beta1 in HEK cell lysates at 1 to 100 uM after 1 hr by MV151 competitive SDS-PAGE analysis.
In assay [4] the test system is HEK293. Kind of assay: Inhibition of proteasome beta2 in HEK cell at 50 uM after 3 hrs by MV151 competitive SDS-PAGE analysis. It counts as cell-based.
The test system of assay [5] is HEK293. Kind of assay: Inhibition of proteasome beta1 in HEK cell at 50 uM after 3 hrs by MV151 competitive SDS-PAGE analysis. It counts as cell-based.
Assay [6] deals with HEK293. Briefly: Inhibition of proteasome beta5 in HEK cell at 5 uM after 3 hrs by MV151 competitive SDS-PAGE analysis. It counts as cell-based.

Active and inactive are the calls of the source. The rule behind the calls is not given here.

On to `CC[C@H](C)[C@H](N)C(=O)N[C@H](C(=O)N[C@@H](CC(C)C)CS(=O)(=O)F)[C@@H](C)O`, for which the inhibition result in assay [1], in assay [2] and in assay [3] was “Active” throughout.

With `CC(C)C[C@@H](CS(=O)(=O)F)NC(=O)[C@H](CC(C)C)NC(=O)[C@H](CC(C)C)NC(=O)[C@H](CC(C)C)NC(=O)OCc1ccccc1`, the inhibition result in assay [4], in assay [5], in assay [6], in assay [1], in assay [2] and in assay [3] was “Active” throughout.

With `CC[C@H](C)[C@H](NC(C)=O)C(=O)N[C@H](C(=O)N[C@H](C(=O)N[C@@H](CC(C)C)CS(=O)(=O)F)[C@@H](C)O)[C@@H](C)CC`, the inhibition entry in assay [1], in assay [2] and in assay [3] was “Active” throughout.

As to `CC[C@H](C)[C@H](NC(=O)OC(C)(C)C)C(=O)N[C@H](C(=O)N[C@@H](CC(C)C)CS(=O)(=O)F)[C@@H](C)OCc1ccccc1`, the inhibition entry in assay [1], in assay [2] and in assay [3] was “Active” in each case.

On to `CC[C@H](C)[C@H](NC(=O)OC(C)(C)C)C(=O)N[C@H](C(=O)N[C@H](C(=O)N[C@@H](CC(C)C)CS(=O)(=O)F)[C@@H](C)OCc1ccccc1)[C@@H](C)CC`, for which the inhibition result in assay [1], in assay [2] and in assay [3] was “Active” throughout.

In the case of `CC(C)C[C@@H](CS(=O)(=O)F)NC(=O)[C@H](CC(C)C)NC(=O)[C@@H](N)CC(C)C`, the inhibition result in assay [1], in assay [2] and in assay [3] was “Active” throughout.

Consider `CC(C)C[C@@H](CS(=O)(=O)F)NC(=O)[C@H](CC(C)C)NC(=O)[C@H](CC(C)C)NC(=O)OCc1ccccc1`, for which the inhibition entry in assay [1], in assay [2] and in assay [3] was “Active” in each case.

In the case of `CC[C@H](C)[C@H](NC(=O)CN=[N+]=[N-])C(=O)N[C@H](C(=O)N[C@H](C(=O)N[C@@H](CC(C)C)CS(=O)(=O)F)[C@@H](C)O)[C@@H](C)CC`, the inhibition entry in assay [1], in assay [2] and in assay [3] was “Active” each time.

In the case of `CC(C)C[C@@H](CS(=O)(=O)F)NC(=O)[C@H](CC(C)C)NC(=O)[C@H](CC(C)C)NC(=O)[C@H](Cc1ccccc1)N=[N+]=[N-]`, the inhibition result in assay [1], in assay [2] and in assay [3] was “Active” throughout.

Turning to `CC(C)C[C@@H](CS(=O)(=O)F)NC(=O)[C@H](CC(C)C)NC(=O)[C@H](CC(C)C)NC(=O)OC(C)(C)C`, the inhibition entry in assay [1], in assay [2] and in assay [3] was “Active” in each case.

For `CC[C@H](C)[C@H](NC(=O)CN=[N+]=[N-])C(=O)N[C@H](C(=O)N[C@H](C(=O)N[C@@H](CC(C)C)CS(=O)(=O)F)[C@@H](C)OC(C)=O)[C@@H](C)CC`, the inhibition result in assay [1], in assay [2] and in assay [3] was “Active” in each case.

For `CC(C)C[C@@H](CS(=O)(=O)F)NC(=O)[C@@H](N)[C@@H](C)OCc1ccccc1`, the inhibition result in assay [1], in assay [2] and in assay [3] was “inactive” each time.

As for `CC[C@H](C)[C@H](N)C(=O)N[C@H](C(=O)N[C@@H](CC(C)C)CS(=O)(=O)F)[C@@H](C)OCc1ccccc1`, the inhibition entry in assay [1], in assay [2] and in assay [3] was “Active” each time.

With `CC[C@H](C)[C@H](N)C(=O)N[C@H](C(=O)N[C@H](C(=O)N[C@@H](CC(C)C)CS(=O)(=O)F)[C@@H](C)OCc1ccccc1)[C@@H](C)CC`, the inhibition entry in assay [1], in assay [2] and in assay [3] was “Active” each time.

For the molecule `CC(C)C[C@@H](CS(=O)(=O)F)NC(=O)[C@H](Cc1ccccc1)NC(=O)c1cnccn1`, the inhibition result in assay [1], in assay [2] and in assay [3] was “inactive” each time.

With `CC[C@H](C)[C@H](NC(C)=O)C(=O)N[C@H](C(=O)N[C@H](C(=O)N[C@@H](CC(C)C)CS(=O)(=O)F)[C@@H](C)OCc1ccccc1)[C@@H](C)CC`, the inhibition entry in assay [1], in assay [2] and in assay [3] was “Active” throughout.

Consider `CC[C@H](C)[C@H](N)C(=O)N[C@H](C(=O)N[C@H](C(=O)N[C@@H](CC(C)C)CS(=O)(=O)F)[C@@H](C)O)[C@@H](C)CC`, for which the inhibition entry in assay [1], in assay [2] and in assay [3] was “Active” in each case.

As to `CC(C)C[C@@H](CS(=O)(=O)F)NC(=O)[C@@H](N)Cc1ccccc1`, the inhibition result in assay [1], in assay [2] and in assay [3] was “inactive” each time.

Consider `CC(C)C[C@@H](CS(=O)(=O)F)NC(=O)[C@H](CC(C)C)NC(=O)[C@H](CC(C)C)NC(=O)[C@@H](N)CC(C)C`, for which the inhibition result in assay [1], in assay [2] and in assay [3] was “Active” in each case.

Turning to `CC(=O)N[C@@H](CC(C)C)C(=O)N[C@@H](CC(C)C)C(=O)N[C@@H](CC(C)C)C(=O)N[C@@H](CC(C)C)CS(=O)(=O)F`, the inhibition entry in assay [1], in assay [2] and in assay [3] was “Active” in each case.
